This is an account of results in US10508120B2, “TYK2 inhibitors and uses thereof” (Nimbus Lakshmi, Inc., priority 2017, dated 2019).

The target of one experiment is Tyk2 kinase domain (DH1) (Homo sapiens (Human), UniProt P29597). Nature of the experiment: Tyk2 Radioactive Kinase Assay. The class given is biochemical. The conditions noted are these: read-out: Tyk2 JH1% Inhibition @ 10 μM. An outline of the steps:
(§1)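 Compounds were tested at a single concentration of 10 μM in a radiometric kinase format against each isolated kinase domain. Activity is reported as percent inhibition at that concentration.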

For experiment [1], the target named is human TYK2 (JH2domain-pseudokinase) (Homo sapiens (Human), UniProt P29597). Nature of the experiment: TYK2 JH2 Domain Binding Assay (KINOMEscan). The method, boiled down:
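Pseudokinase domain binding was measured by qPCR of tagged, bead-retained kinase after 1 h room-temperature competition, with 0.9% DMSO and compound up to 30,000 nM in 3-fold steps. Hill-equation Kd, duplicate.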

Another experiment deals with JAK2 kinase domain (JH1) (Homo sapiens (Human), UniProt O60674). Put plainly: JAK2 Radioactive Kinase Assay. The class given is biochemical. As to conditions: read-out: JAK2 JH1% Inhibition @ 10 μM. An outline of the steps: as §1
Chain of JAK2 kinase domain (JH1) (O60674 849-1124): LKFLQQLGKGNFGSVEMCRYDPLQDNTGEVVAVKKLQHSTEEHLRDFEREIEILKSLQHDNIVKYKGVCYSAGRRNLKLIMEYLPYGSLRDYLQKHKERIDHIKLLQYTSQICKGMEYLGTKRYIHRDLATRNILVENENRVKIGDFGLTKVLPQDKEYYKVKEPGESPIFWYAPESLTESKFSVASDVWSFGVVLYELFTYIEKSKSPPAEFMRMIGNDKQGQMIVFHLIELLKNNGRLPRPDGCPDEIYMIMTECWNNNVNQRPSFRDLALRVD

SMILES strings stand for the structures. pKd: −log10 of the molar value. Where two headings read alike, the source gives them in different places.

Chain of human TYK2 (JH2domain-pseudokinase) (P29597 556-888): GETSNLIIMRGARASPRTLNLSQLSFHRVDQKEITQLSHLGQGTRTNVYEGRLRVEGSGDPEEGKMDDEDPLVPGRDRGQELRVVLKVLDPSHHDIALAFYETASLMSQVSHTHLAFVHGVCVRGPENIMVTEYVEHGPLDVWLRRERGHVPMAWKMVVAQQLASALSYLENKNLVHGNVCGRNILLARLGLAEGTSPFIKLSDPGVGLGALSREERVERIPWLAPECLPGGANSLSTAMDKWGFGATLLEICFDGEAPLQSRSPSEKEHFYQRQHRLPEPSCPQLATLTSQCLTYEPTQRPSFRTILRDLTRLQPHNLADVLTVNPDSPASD
Chain of Tyk2 kinase domain (DH1) (P29597 897-1176): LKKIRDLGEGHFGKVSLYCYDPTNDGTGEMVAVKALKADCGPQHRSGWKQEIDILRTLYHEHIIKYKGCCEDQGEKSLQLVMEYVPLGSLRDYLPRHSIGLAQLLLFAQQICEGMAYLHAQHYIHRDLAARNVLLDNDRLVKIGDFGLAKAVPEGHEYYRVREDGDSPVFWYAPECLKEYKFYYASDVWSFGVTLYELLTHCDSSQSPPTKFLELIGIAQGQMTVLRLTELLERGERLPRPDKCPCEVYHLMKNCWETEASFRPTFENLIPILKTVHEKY

Take `CNc1cc(Nc2cccnc2O[C@H]2CC[C@H](O)CC2)nc2c(C(=O)N[C@H]3C[C@H]3F)cnn12` [I-239]: the inhibition at 10 µM on Tyk2 kinase domain (DH1) (compound at 10 μM, ATP 10 μM) is less than 50%; on JAK2 kinase domain (JH1) (compound at 10 μM, ATP 10 μM), less than 50%. Further, the pKd in experiment [1] is greater than 9.70.
Consider `CNc1cc(Nc2cccnc2O[C@H]2CC[C@H](OC)CC2)nc2c(C(=O)NC3CC3)cnn12` [I-247], for which the inhibition at 10 µM on Tyk2 kinase domain (DH1) (compound at 10 μM, ATP 10 μM) is less than 50%; on JAK2 kinase domain (JH1) (compound at 10 μM, ATP 10 μM), less than 50%. Moreover, the negative-log Kd (pKd) in experiment [1] is 9.00 to 9.70.
On to `CNC(=O)c1occc1Nc1cc(NC)n2ncc(C(=O)N[C@H]3CC[C@@H]3OC)c2n1` (stereo in doubt) [I-1111, N-(2-methoxycyclobutyl)-7-(methylamino)-5-((2-(methylcarbamoyl)furan-3-yl)amino)pyrazolo[1,5-a]pyrimidine-3-carboxamide], for which the inhibition at 10 µM on Tyk2 kinase domain (DH1) (10 μM compound, 10 μM ATP) is less than 50%; at JAK2 kinase domain (JH1) (10 μM compound, 10 μM ATP) it was less than 50%. The same compound showed a pKd in experiment [1] greater than 9.70.
As to `CO[C@@H]1CCN(c2cc(Nc3cc(N)n4ncc(C(N)=O)c4n3)cc(C)n2)C1` [I-30], the inhibition at 10 µM was less than 50% at Tyk2 kinase domain (DH1) (compound at 10 μM, ATP 10 μM) and less than 50% at JAK2 kinase domain (JH1) (compound at 10 μM, ATP 10 μM). Further, the pKd in experiment [1] was 8.00 to 9.00.
`CNc1cc(Nc2cc(Cl)cnc2OC(C)C)nc2c(C(=O)NC3CCC3)cnn12` [I-149]: the inhibition at 10 µM on Tyk2 kinase domain (DH1) (compound at 10 μM, ATP 10 μM) was less than 50%; on JAK2 kinase domain (JH1) (compound at 10 μM, ATP 10 μM), less than 50%. The same compound had a pKd in experiment [1] of 8.00 to 9.00.
With `CNc1cc(Nc2cccn([C@H]3CC[C@@](C)(O)CC3)c2=O)nc2c(C(=O)NC3CC3)cnn12` [I-414], the inhibition at 10 µM on Tyk2 kinase domain (DH1) (compound at 10 μM, ATP 10 μM) is less than 50%; at JAK2 kinase domain (JH1) (compound at 10 μM, ATP 10 μM), less than 50%. Further, the negative logarithm of the Kd (pKd) in experiment [1] was 9.00 to 9.70.
For the compound `CNc1cc(Nc2cccnc2O[C@H]2C[C@H](OC)C2)nc2c(C(=O)NC3CC3)cnn12` [I-188], the inhibition at 10 µM at Tyk2 kinase domain (DH1) (compound at 10 μM, ATP 10 μM) is less than 50%; on JAK2 kinase domain (JH1) (compound at 10 μM, ATP 10 μM), less than 50%. In experiment [1], this compound showed a negative logarithm of the Kd (pKd) greater than 9.70.
On to `CNc1cc(Nc2cccc(N3CCC34COC4)n2)nc2c(C(=O)NC3CC3)cnn12` [I-708], for which the inhibition at 10 µM is less than 50% on Tyk2 kinase domain (DH1) (compound at 10 μM, ATP 10 μM) and less than 50% on JAK2 kinase domain (JH1) (compound at 10 μM, ATP 10 μM). In experiment [1], this compound had a pKd greater than 9.70.
On to `CNc1cc(Nc2cccn(-c3nc(C)c(C)s3)c2=O)nc2c(C(=O)NC3CCC3)cnn12` [I-293], for which the inhibition at 10 µM at Tyk2 kinase domain (DH1) (compound at 10 μM, ATP 10 μM) is less than 50%; at JAK2 kinase domain (JH1) (compound at 10 μM, ATP 10 μM), less than 50%. In addition, in experiment [1], the pKd was 9.00 to 9.70.
As for `CNc1cc(Nc2cccn(-c3cnn(C)c3F)c2=O)nc2c(C(=O)NC3CC3)cnn12` [I-808], the inhibition at 10 µM at Tyk2 kinase domain (DH1) (10 μM compound, 10 μM ATP) was less than 50%; on JAK2 kinase domain (JH1) (10 μM compound, 10 μM ATP), less than 50%. In experiment [1], this compound showed a pKd greater than 9.70.
As for `CNc1cc(-c2cn(CCN3CCCCC3)c3ncccc23)nc2c(C(=O)N[C@H]3CC[C@H]3O)cnn12` [I-875], the inhibition at 10 µM on Tyk2 kinase domain (DH1) (10 μM compound, 10 μM ATP) was less than 50%; at JAK2 kinase domain (JH1) (10 μM compound, 10 μM ATP) it was less than 50%. The compound also showed a pKd in experiment [1] greater than 9.70.
In the case of `CNc1cc(Nc2cccn([C@H]3CCN(C)C[C@H]3F)c2=O)nc2c(C(=O)NC3CC3)cnn12` [I-627], the inhibition at 10 µM is less than 50% at Tyk2 kinase domain (DH1) (compound at 10 μM, ATP 10 μM) and less than 50% at JAK2 kinase domain (JH1) (compound at 10 μM, ATP 10 μM). In addition, the pKd in experiment [1] is greater than 9.70.
Regarding `NC(=O)c1cnn2c(N)cc(Nc3cccn([C@H]4CC[C@@H](N5CCOCC5)CC4)c3=O)nc12` [I-76], the inhibition at 10 µM is less than 50% on Tyk2 kinase domain (DH1) (compound at 10 μM, ATP 10 μM) and less than 50% on JAK2 kinase domain (JH1) (compound at 10 μM, ATP 10 μM). The same compound gave a pKd in experiment [1] of 8.00 to 9.00.
As for `CNc1cc(Nc2cc(Cl)cn(C3CNC3)c2=O)nc2c(C(N)=O)cnn12` [I-40], the inhibition at 10 µM on Tyk2 kinase domain (DH1) (compound at 10 μM, ATP 10 μM) was less than 50%; on JAK2 kinase domain (JH1) (compound at 10 μM, ATP 10 μM) it was less than 50%. This compound also had a pKd in experiment [1] of 9.00 to 9.70.
Consider `CNc1cc(Nc2cccnc2O[C@H]2CC[C@H](O)CC2)nc2c(C(=O)NC3CC3)cnn12` [I-231], for which the inhibition at 10 µM on Tyk2 kinase domain (DH1) (compound at 10 μM, ATP 10 μM) is less than 50%; on JAK2 kinase domain (JH1) (compound at 10 μM, ATP 10 μM), less than 50%. In experiment [1], the pKd is 9.00 to 9.70.
Consider `CNc1cc(Nc2cccnc2C(C)(F)F)nc2c(C(=O)N[C@H]3C[C@H]3F)cnn12` [I-300], for which the inhibition at 10 µM at Tyk2 kinase domain (DH1) (compound at 10 μM, ATP 10 μM) is less than 50%; on JAK2 kinase domain (JH1) (compound at 10 μM, ATP 10 μM) it was less than 50%. Further, the pKd in experiment [1] is 9.00 to 9.70.
On to `[2H]C([2H])([2H])Oc1ncc(C)cc1Nc1cc(NC)n2ncc(C(=O)NC3CCC3)c2n1` [I-260, N-cyclobutyl-5-((2-(methoxy-d3)-5-methylpyridin-3-yl)amino)-7-(methylamino)pyrazolo[1,5-a]pyrimidine-3-carboxamide], for which the inhibition at 10 µM on Tyk2 kinase domain (DH1) (compound at 10 μM, ATP 10 μM) was less than 50%; at JAK2 kinase domain (JH1) (compound at 10 μM, ATP 10 μM) it was less than 50%. Moreover, the pKd in experiment [1] was 9.00 to 9.70.
For the compound `CNc1cc(Nc2cccn(-c3nc(C)co3)c2=O)nc2c(C(=O)N[C@H]3CC[C@H]3O)cnn12` [I-707], the inhibition at 10 µM at Tyk2 kinase domain (DH1) (compound at 10 μM, ATP 10 μM) was less than 50%; on JAK2 kinase domain (JH1) (compound at 10 μM, ATP 10 μM), less than 50%. Further, the pKd in experiment [1] is greater than 9.70.

What is called inhibition is the relative decrease from the control value, in per cent. As usually defined, the pKd is −log10 of the Kd, conventionally taken in molar units. A high value points to a small Kd.
